What was measured:
[1] = tested on: TK-10; assay: NCI in vitro 60-cell drug screen (SRB assay); format: cell-based; conditions: TK-10 (Renal cancer); 10^-5 molar concentration; 48 hours
[2] = tested on: HCT-15; assay: NCI in vitro 60-cell drug screen (SRB assay); format: cell-based; conditions: HCT-15 (Colon cancer); 10^-5 molar concentration; 48 hours
[3] = tested on: HOP-62; assay: NCI in vitro 60-cell drug screen (SRB assay); format: cell-based; conditions: HOP-62 (Non-small cell lung cancer); 10^-5 molar concentration; 48 hours
[4] = tested on: NCI-H322M; assay: NCI in vitro 60-cell drug screen (SRB assay); format: cell-based; conditions: NCI-H322M (Non-small cell lung cancer); 10^-5 molar concentration; 48 hours
[5] = tested on: COLO 205; assay: NCI in vitro 60-cell drug screen (SRB assay); format: cell-based; conditions: COLO 205 (Colon cancer); 10^-5 molar concentration; 48 hours
[6] = tested on: SW-620; assay: NCI in vitro 60-cell drug screen (SRB assay); format: cell-based; conditions: SW-620 (Colon cancer); 10^-5 molar concentration; 48 hours
[7] = tested on: UACC-62; assay: NCI in vitro 60-cell drug screen (SRB assay); format: cell-based; conditions: UACC-62 (Melanoma); 10^-5 molar concentration; 48 hours
[8] = tested on: 60 cell lines; assay: NCI in vitro 60-cell drug screen (SRB assay), whole panel statistics; conditions: mean over the cell panel; 10^-5 molar concentration; 48 hours
[9] = tested on: CAKI-1; assay: NCI in vitro 60-cell drug screen (SRB assay); format: cell-based; conditions: CAKI-1 (Renal cancer); 10^-5 molar concentration; 48 hours
[10] = tested on: SK-MEL-2; assay: NCI in vitro 60-cell drug screen (SRB assay); format: cell-based; conditions: SK-MEL-2 (Melanoma); 10^-5 molar concentration; 48 hours
[11] = tested on: CCRF-CEM; assay: NCI in vitro 60-cell drug screen (SRB assay); format: cell-based; conditions: CCRF-CEM (Leukemia); 10^-5 molar concentration; 48 hours
[12] = tested on: K-562; assay: NCI in vitro 60-cell drug screen (SRB assay); format: cell-based; conditions: K-562 (Leukemia); 10^-5 molar concentration; 48 hours
[13] = tested on: SF-268; assay: NCI in vitro 60-cell drug screen (SRB assay); format: cell-based; conditions: SF-268 (CNS cancer); 10^-5 molar concentration; 48 hours
[14] = tested on: SF-295; assay: NCI in vitro 60-cell drug screen (SRB assay); format: cell-based; conditions: SF-295 (CNS cancer); 10^-5 molar concentration; 48 hours
[15] = tested on: T-47D; assay: NCI in vitro 60-cell drug screen (SRB assay); format: cell-based; conditions: T-47D (Breast cancer); 10^-5 molar concentration; 48 hours
[16] = tested on: SK-MEL-28; assay: NCI in vitro 60-cell drug screen (SRB assay); format: cell-based; conditions: SK-MEL-28 (Melanoma); 10^-5 molar concentration; 48 hours
[17] = tested on: SR; assay: NCI in vitro 60-cell drug screen (SRB assay); format: cell-based; conditions: SR (Leukemia); 10^-5 molar concentration; 48 hours
[18] = tested on: SK-MEL-5; assay: NCI in vitro 60-cell drug screen (SRB assay); format: cell-based; conditions: SK-MEL-5 (Melanoma); 10^-5 molar concentration; 48 hours
[19] = tested on: HCT-116; assay: NCI in vitro 60-cell drug screen (SRB assay); format: cell-based; conditions: HCT-116 (Colon cancer); 10^-5 molar concentration; 48 hours
[20] = tested on: KM12; assay: NCI in vitro 60-cell drug screen (SRB assay); format: cell-based; conditions: KM12 (Colon cancer); 10^-5 molar concentration; 48 hours
[21] = tested on: MALME-3M; assay: NCI in vitro 60-cell drug screen (SRB assay); format: cell-based; conditions: MALME-3M (Melanoma); 10^-5 molar concentration; 48 hours
[22] = tested on: MDA-MB-435; assay: NCI in vitro 60-cell drug screen (SRB assay); format: cell-based; conditions: MDA-MB-435 (Melanoma); 10^-5 molar concentration; 48 hours
[23] = tested on: HOP-92; assay: NCI in vitro 60-cell drug screen (SRB assay); format: cell-based; conditions: HOP-92 (Non-small cell lung cancer); 10^-5 molar concentration; 48 hours
[24] = tested on: UACC-257; assay: NCI in vitro 60-cell drug screen (SRB assay); format: cell-based; conditions: UACC-257 (Melanoma); 10^-5 molar concentration; 48 hours
[25] = tested on: HCC-2998; assay: NCI in vitro 60-cell drug screen (SRB assay); format: cell-based; conditions: HCC-2998 (Colon cancer); 10^-5 molar concentration; 48 hours
[26] = tested on: IGROV1; assay: NCI in vitro 60-cell drug screen (SRB assay); format: cell-based; conditions: IGROV1 (Ovarian cancer); 10^-5 molar concentration; 48 hours
[27] = tested on: MOLT-4; assay: NCI in vitro 60-cell drug screen (SRB assay); format: cell-based; conditions: MOLT-4 (Leukemia); 10^-5 molar concentration; 48 hours
[28] = tested on: A549/ATCC; assay: NCI in vitro 60-cell drug screen (SRB assay); format: cell-based; conditions: A549/ATCC (Non-small cell lung cancer); 10^-5 molar concentration; 48 hours
[29] = tested on: ACHN; assay: NCI in vitro 60-cell drug screen (SRB assay); format: cell-based; conditions: ACHN (Renal cancer); 10^-5 molar concentration; 48 hours
[30] = tested on: MDA-MB-486; assay: NCI in vitro 60-cell drug screen (SRB assay); format: cell-based; conditions: MDA-MB-486 (Breast cancer); 10^-5 molar concentration; 48 hours
[31] = tested on: M14; assay: NCI in vitro 60-cell drug screen (SRB assay); format: cell-based; conditions: M14 (Melanoma); 10^-5 molar concentration; 48 hours
[32] = tested on: MDA-MB-231/ATCC; assay: NCI in vitro 60-cell drug screen (SRB assay); format: cell-based; conditions: MDA-MB-231/ATCC (Breast cancer); 10^-5 molar concentration; 48 hours
[33] = tested on: U251; assay: NCI in vitro 60-cell drug screen (SRB assay); format: cell-based; conditions: U251 (CNS cancer); 10^-5 molar concentration; 48 hours
[34] = tested on: MCF7; assay: NCI in vitro 60-cell drug screen (SRB assay); format: cell-based; conditions: MCF7 (Breast cancer); 10^-5 molar concentration; 48 hours
[35] = tested on: UO-31; assay: NCI in vitro 60-cell drug screen (SRB assay); format: cell-based; conditions: UO-31 (Renal cancer); 10^-5 molar concentration; 48 hours
[36] = tested on: BT-549; assay: NCI in vitro 60-cell drug screen (SRB assay); format: cell-based; conditions: BT-549 (Breast cancer); 10^-5 molar concentration; 48 hours
[37] = tested on: A498; assay: NCI in vitro 60-cell drug screen (SRB assay); format: cell-based; conditions: A498 (Renal cancer); 10^-5 molar concentration; 48 hours

SMILES | Growth percent [1] | Growth percent [2] | Growth percent [3] | Growth percent [4] | Growth percent [5] | Growth percent [6] | Growth percent [7] | Growth percent, Mean [8] | Growth percent [10] | Growth percent [11] | Growth percent [12] | Growth percent [13] | Growth percent [14] | Growth percent [15] | Growth percent [16] | Growth percent [17] | Growth percent [18] | Growth percent [19] | Growth percent [20] | Growth percent [21] | also measured
O=C(O)c1c(Sc2ccc(Cl)cc2)c(O)nc2ccccc12 [Compound 2, 3-((4-Chlorophenyl)thio)-2-hydroxyquinoline-4-carboxylic acid] | 118.09% | 107.80% | 116.47% | 101.10% | 108.65% | 96.92% | 102.05% | 102.11% | 119.91% | 98.31% | 112.29% | 113.60% | 98.99% | 99.59% | 98.95% | 106.33% | 98.07% | 103.87% | 112.61% | 107.05% | Growth percent [9]: 76.26%; Growth percent [22]: 102.02%; Growth percent [23]: 72.97%; Growth percent [24]: 121.83%; Growth percent [25]: 100.97%; Growth percent [26]: 103.57%; Growth percent [27]: 97.25%; Growth percent [28]: 107.34%; Growth percent [29]: 113.47%; Growth percent [30]: 104.57%; Growth percent [31]: 106.90%; Growth percent [32]: 95.70%; Growth percent [33]: 99.59%; Growth percent [34]: 91.95%; Growth percent [35]: 68.91%; Growth percent [36]: 124.20%
CN(C)c1nc2ccccc2c2c(=O)c3cc(Cl)ccc3sc12 [Compound 6, 10-Chloro-6-dimethylamino-12H-thiochromeno[2,3-c]quinolin-12-one] | 64.75% | 89.27% | 43.62% | 83.74% | 89.67% | 105.18% | 87.80% | 80.59% | 87.26% | 99.42% | 99.71% | 77.86% | 48.82% | 37.66% | 96.60% | 95.68% | 97.92% | 74.26% | 96.40% | 89.70% | Growth percent [37]: 97.06%; Growth percent [22]: 107.18%; Growth percent [23]: 58.65%; Growth percent [24]: 109.22%; Growth percent [25]: 97.20%; Growth percent [26]: 68.16%; Growth percent [27]: 97.52%; Growth percent [28]: 94.16%; Growth percent [29]: 64.81%; Growth percent [30]: 29.91%; Growth percent [31]: 94.36%; Growth percent [32]: 71.03%; Growth percent [33]: 93.55%; Growth percent [34]: 22.19%; Growth percent [35]: 73.81%; Growth percent [36]: 92.96%

From patent publication EP3002287B1, “Thiochromeno[2,3-c]quinolin-12-one derivatives and their use as topoisomerase inhibitors” (National Defense Medical Center, priority 2014, dated 2016)
